Data published in US11311548B2, “Cancer therapy” (Aslan Pharmaceuticals Pte. Ltd., priority 2017, dated 2022).
“Also recorded” adds a separate entry of the source.

Experiments:
KG-1 = assay: Differentiation of AML cell line (CD11b/CD14 flow cytometry, NBT assay, Wright-Giemsa staining); format: cell-based; conditions: KG-1, FAB M0/M1
Method: (§1) The AML cell lines were dosed with the varying concentrations of ASLAN003 and differentiation of the cell lines were observed via upregulation of CD11b and CD14 on the cell surface via flow cytometry. Differentiation was also determined using the NBT assay and from morphological observations from Wright-Giemsa staining.

MOLM-14 = assay: as above; format: cell-based; conditions: MOLM-14, FAB M5
Method: as §1

NB-4 = assay: as above; format: cell-based; conditions: NB-4, FAB M3
Method: as §1

HL-60 = assay: as above; format: cell-based; conditions: HL-60, FAB M2
Method: as §1

THP-1 = assay: as above; format: cell-based; conditions: THP-1, FAB M5
Method: as §1

MOLM-14 xenograft = MOLM-14 xenograft model in NSG mice; format: in vivo
Method: NSG mice were inoculated with MOLM-14 cells via tail vein injection. Treatment by oral gavage with either ASLAN003 (50 mg/kg QD) or vehicle control was started 3 days past inoculation. 11 mice were treated in the ASLAN003 group and 12 mice were treated in the vehicle control group. The following data is collected at the end of the experiment: […]

AD345 primary MDS cells = assay: FACs analysis of primary MDS cells; format: cell-based; conditions: 96 hours
Method: (§2) AD345 primary MDS cells (refractory cytopenia with multilineage dysplasia, normal karyotype) and AD537 primary MDS bone marrow cells (refractory cytopenia with multilineage dysplasia, karyotype 46, XY, 43.1% myeloid) were treated with ASLAN003 (4000 nM) or DMSO control for 96 hours. A FACs analysis was then performed using Pacific blue dye. The AD537 cells were also stained with Wright-Giemsa and NBT reduction.

[1] = test system: Multiple myeloma (MM) cell lines; assay: CellTiter-Glo Luminescent Cell Viability Assay, MM cell lines; format: cell-based, human; conditions: increasing dose, 48 hours
Method: (§3) Multiple myeloma (MM) or chronic myeloid leukaemia (CML) cell lines were seeded at 20,000 cells in 100 μL of medium in 96-well format and treated with increasing dose of ASLAN003 for 48 hours. DMSO was used as control. The CellTiter-Glo® Luminescent Cell Viability Assay, which is a homogeneous method of determining the number of viable cells in culture based on quantitation of the ATP present, i.e. an indicator of metabolically active cells was then performed on the cell lines.

[2] = test system: AD537 primary MDS bone marrow cells; assay: FACs analysis of primary MDS bone marrow cells; format: cell-based; conditions: 96 hours
Method: as §2

[3] = test system: chronic myeloid leukaemia (CML) cell lines; assay: CellTiter-Glo Luminescent Cell Viability Assay, CML cell lines; format: cell-based, human; conditions: CML cell lines (K562, KCL-22), increasing dose, 48 hours
Method: as §3

COc1cccc(-c2cc(F)c(Nc3ncccc3C(=O)O)c(F)c2)c1 [ASLAN003, 2-(3,5-difluoro-3′-methoxybiphenyl-4-ylamino) nicotinic acid]
ASLAN003 Differentiation (KG-1): myeloid differentiation effects of ASLAN003 were observed; also recorded: Positive | ASLAN003 Differentiation (MOLM-14): myeloid differentiation effects of ASLAN003 were observed; also recorded: Positive | ASLAN003 Differentiation (NB-4): did not induce observed differentiation effects; also recorded: Negative | ASLAN003 Differentiation (HL-60): did not induce observed differentiation effects; also recorded: Negative | ASLAN003 Differentiation (THP-1): myeloid differentiation effects of ASLAN003 were observed; also recorded: Positive | Survival of MOLM-14 xenograft mice (MOLM-14 xenograft; 50 mg/kg QD oral gavage, vs vehicle): significantly (p=0.031) prolonged survival | Median survival (MOLM-14 xenograft; MOLM-14 xenograft NSG mice, 50 mg/kg QD oral gavage from 3 days past inoculation, vehicle group 24 days): 27 days | Leukaemic burden (percentage of CD45+ cells) (MOLM-14 xenograft; bone marrow, peripheral blood, spleen and liver, 50 mg/kg QD oral gavage, flow cytometry): significantly decreased leukaemic burden | Differentiation of leukaemic cells (hCD11b+ and hCD14+ cells) (MOLM-14 xenograft; bone marrow, 50 mg/kg QD oral gavage, flow cytometry): significantly induced differentiation | increase in CD11b+CD14+ cells (AD345 primary MDS cells; AD345, 4 μM): about 11% | increase in CD13+CD33+ cells (AD345 primary MDS cells; AD345, 4 μM): about 12.3% | viability at 4 µM (AD345 primary MDS cells; AD345, 4000 nM, DMSO control 93%, read-out: % viable cells): 86.5% | Cell viability [1]: has the ability to reduce the viability | increase in CD13+CD33+ cells ([2]; AD537, 4 μM): about 12.3% | increase in CD14+ cells ([2]; AD537, 4 μM): about 20% | increase of CD11b+ cells ([2]; AD537, 4 μM): ~30% | viability at 4 µM ([2]; Bone marrow cell, AD537, 4000 nM, DMSO control 84.5%, read-out: % viable cells): 73% | Cell viability [3]: has the ability to reduce the viability
